SMILES strings stand for the structures.

In test [1] the test system is myeloperoxidase accumulation (acetic acid-induced colitis). The test can be described thus: Acetic Acid-Induced Colitis in Rats, In Vivo. Also on record: species or system male rats (Sprague-Dawley). The text has this:
The rat acetic acid-induced colitis bioassay has been described by J. E. Krawisz, et al. in Amer. J. Proc. Gastro. Col. Rec. Surg. 31: 11-18 (1980), and by P. Sharon and W. F. Stenson in Gastroenterolgy 88: 55-63 (1985) and 86: 453-460 (1984). Acetic acid-induced colitis is characterized by the movement of inflammatory cells into the colon, with the number of such cells in the mucosa being measured by the activity of myeloperoxidase, a marker enzyme for these cells. Positive desirable activity is indicated by a reduction in the high levels of myeloperoxidase caused by acetic acid. Male rats (Sprague-Dawley), weighing 150 to 300 g, were pretreated twice daily for two days with either the vehicle (water, or dimethylsulfoxide) or the test inhibitor compound suspended in water or dissolved in dimethylsulfoxide and orally administered. On the third day, the animals were dosed the same as on the previous two days, anesthetized with metofane, and 2 ml of 2.5% acetic acid was injected by syringe into the colonic lumen, followed immediately by 3 ml of air and a rinse consisting of 3 ml of phosphate-buffered saline (the acetic acid is present in the lumen for a sufficient period to cause inflammation without producing severe necrosis or irreversible damage). The animals were administered a second dose of the test compound in the same amount about 16 hours later. 24 hours after the acetic acid treatment, the animals were sacrificed, the colonic mucosa was surgically removed and homogenized in an aqueous buffer at pH 6 with a Tissumizer or similar device and myeloperoxidase was measured in the homogenate using o-phenylenediamine as a chromagen, as described by A. Voller, D. E. Bidwell and A. Bartlett in The Enzyme Linked Immunosorbent Assay (ELISA), Zoological Soc., London, 1979, pages 29-30. Control animals were pretreated with the vehicle and saline in place of acetic acid.

The test system of test [2] is Carrageenan pleurisy. The test can be described thus: Carrageenan Pleurisy Test (In Vivo). Also on record: species or system male Lewis rats. The following applies: Rattus norvegicus, po, read-out: Rat Carrageenan Pleurisy % Inhib. of Exudate Volume; for inhibition in vivo at 100 mg/kg: at 100 mg/kg p.o. Here is the method: The animals utilized in these studies were male Lewis rats (Charles River Breeding Laboratories) weighing between 230-250 g. […] At 5 or 24 hours after CG injection, the rats were killed by decapitation, exsanguinated, and the pleural cavity exposed by cutting the ribs on both sides of the sternum. The exudate fluid was removed from the pleural cavity with disposable plastic pipettes and its volume quantitated. The pleural cavity was then washed once with phosphate buffered saline containing fetal bovine serum (1:1) and the washings combined with the exudate. The total number of cells in the pleural cavity was quantitated using a Coulter Counter (Model ZM) adjusted to exclude any contaminating RBC. (Published in "Plant Flavonoids in Biology & Medicine: Biochemical, Pharmacological and Structure-Activity Relationships" p. 231-242 (1986) Alan R. Liss, Inc.)

For `CCCc1c(OCCCCCCc2ccc(C(C)C)c(O)c2O)ccc(C(=O)O)c1O` [4-[6-[2,3-dihydroxy-4-(1-methylethyl)phenyl]hexyloxy]-2-hydroxy-3-propylbenzoic acid], the “Rat Acetic Acid Colitis Model % Inhib. of Myeloperoxidase Accumulation” value in test [1] (10 mg/kg p.o) turned out to be 53 ± 12%; in test [1] (100 mg/kg p.o), 86 ± 9%. In addition, in test [2] (at 75 mg/kg p.o), the inhibition in vivo at 75 mg/kg was found to be 47%.
Regarding `CCCc1c(OCCCCc2cccc(O)c2O)ccc(C(C)=O)c1O` [1-[2-Hydroxy-4-[4-(2,3-dihydroxyphenyl)butoxy]-3-propylphenyl]ethanone], the “Rat Acetic Acid Colitis Model % Inhib. of Myeloperoxidase Accumulation” value amounted to 46 ± 7% in test [1] (10 mg/kg p.o) and 89 ± 11% in test [1] (30 mg/kg p.o). Also, the inhibition in vivo at 100 mg/kg in test [2] stood at 53%.
Consider `CCCc1c(OCCCCCCCc2cccc(O)c2O)ccc(C(=O)O)c1O` [4-[7-(2,3-dihydroxyphenyl)heptyloxy]-2-hydroxy-3-propylbenzoic acid], for which the inhibition in vivo at 100 mg/kg in test [2] is 57%.
`CCCc1c(OCCCCCCc2cccc(O)c2O)ccc(C(=O)O)c1O` [4-[6-(2,3-Dihydroxyphenyl)hexyloxy]-2-hydroxy-3-propylbenzoic acid]: the “Rat Acetic Acid Colitis Model % Inhib. of Myeloperoxidase Accumulation” value in test [1] (10 mg/kg p.o) came to 42 ± 2%; in test [1] (30 mg/kg p.o) it was 67 ± 15%. Moreover, the inhibition in vivo at 100 mg/kg in test [2] stood at 68%.
On to `CCCc1c(O)c(C(=O)O)cc(Cl)c1OCCCCCCc1cccc(O)c1O` [5-Chloro-2-hydroxy-4-[6-(2,3-dihydroxyphenyl]hexyloxy]-3-propylbenzoic acid], for which the “Rat Acetic Acid Colitis Model % Inhib. of Myeloperoxidase Accumulation” value in test [1] (30 mg/kg p.o) came to 44 ± 6%. Besides, in test [2] (at 50 mg/kg p.o), the inhibition in vivo at 50 mg/kg stood at 45%.
For the molecule `CCCc1c(OCCCCCCc2cccc(O)c2O)ccc(C(=O)OCC)c1O` [4-[6-(2,3-Dihydroxyphenyl)hexyloxy]-2-hydroxy-3-propylbenzoic acid ethyl ester], the “Rat Acetic Acid Colitis Model % Inhib. of Myeloperoxidase Accumulation” value is listed as 40 ± 9% in test [1] (1 mg/kg p.o) and 67 ± 11% in test [1] (3 mg/kg p.o). In addition, in test [2], the inhibition in vivo at 100 mg/kg was 44%.
Turning to `CCCc1c(OCCCc2ccc(O)c(O)c2)ccc(C(=O)O)c1O` [4-[3-(3,4-Dihydroxyphenyl)propoxy]-2-hydroxy-3-propylbenzoic acid], in test [1] (30 mg/kg p.o), the “Rat Acetic Acid Colitis Model % Inhib. of Myeloperoxidase Accumulation” value stood at 39 ± 5%. Further, in test [2], the inhibition in vivo at 100 mg/kg stood at 55%.
`CCCc1c(OCCCCCCCCCCc2cccc(O)c2O)ccc(C(=O)O)c1O` [4-[10-(2,3-dihydroxyphenyl)decyloxy]-2-hydroxy-3-propylbenzoic acid]: the inhibition in vivo at 100 mg/kg in test [2] was 61%.
Turning to `CCCc1c(OCCCCCCCCc2cccc(O)c2O)ccc(C(=O)O)c1O` [4-[8-(2,3-dihydroxyphenyl)octyloxy]-2-hydroxy-3-propylbenzoic acid], the “Rat Acetic Acid Colitis Model % Inhib. of Myeloperoxidase Accumulation” value stood at 35 ± 7% in test [1] (10 mg/kg p.o) and 27 ± 3% in test [1] (100 mg/kg p.o). Also, the inhibition in vivo at 100 mg/kg in test [2] was found to be 66%.
In the case of `O=C(O)c1ccc(OCCCCCCc2cccc(O)c2O)cc1` [4-[6-(2,3-Dihydroxyphenyl)hexyloxy]benzoic acid], the “Rat Acetic Acid Colitis Model % Inhib. of Myeloperoxidase Accumulation” value in test [1] (3 mg/kg p.o) turned out to be 79 ± 8%; in test [1] (10 mg/kg p.o) it was 89 ± 28%. For the same molecule, the inhibition in vivo at 100 mg/kg in test [2] was 46%.
As to `O=C(O)c1ccc(OCCCCCCc2cccc(O)c2O)cc1O` [4-[6-(2,3-Dihydroxyphenyl)hexyloxy]-2-hydroxybenzoic acid], the entries for the “Rat Acetic Acid Colitis Model % Inhib. of Myeloperoxidase Accumulation” value in test [1] (1 mg/kg p.o) and in test [1] (3 mg/kg p.o) were 82 ± 9% and 81 ± 15%, respectively. Moreover, the inhibition in vivo at 100 mg/kg in test [2] turned out to be 0%.
Consider `CCCc1c(OCCCCCc2cccc(O)c2O)ccc(C(=O)O)c1O` [4-[5-(2,3-Dihydroxyphenyl)pentyloxy]-2-hydroxy-3-propylbenzoic acid], for which the “Rat Acetic Acid Colitis Model % Inhib. of Myeloperoxidase Accumulation” value in test [1] (1 mg/kg p.o) is listed as 96 ± 13%. The inhibition in vivo at 100 mg/kg in test [2] worked out at 63%.
Consider `CCCc1c(OCCCCCCc2ccc(O)c(O)c2)ccc(C(=O)O)c1O` [4-[6-(3,4-dihydroxyphenyl)hexyloxy]-2-hydroxy-3-propylbenzoic acid], for which, in test [2], the inhibition in vivo at 100 mg/kg amounted to 0%.
With `CCCc1c(OCCCCc2cccc(O)c2O)ccc(C(=O)O)c1O` [4-[4-(2,3-dihydroxyphenyl)butoxy]-2-hydroxy-3-propylbenzoic acid], the “Rat Acetic Acid Colitis Model % Inhib. of Myeloperoxidase Accumulation” value in test [1] (10 mg/kg p.o) amounted to 73 ± 10%; in test [1] (30 mg/kg p.o), 71 ± 11%. Further, the inhibition in vivo at 100 mg/kg in test [2] is 76%.
Consider `CCCc1c(OCCCCCCc2cccc(O)c2O)ccc(C(C)=O)c1O` [1-[2-hydroxy-4-[6-(2,3-dihydroxyphenyl)hexyloxy]-3-propylphenyl]ethanone], for which the inhibition in vivo at 100 mg/kg in test [2] turned out to be 51%.
As for `CCCc1c(OCCCCCCc2ccc(C(C)C)c(O)c2O)ccc(C(C)=O)c1O` [1-[2-hydroxy-4 [6-[2,3 dihydroxy-4-(1-methylethyl)phenyl]hexyloxy]-3 propylphenyl]ethanone], the “Rat Acetic Acid Colitis Model % Inhib. of Myeloperoxidase Accumulation” value in test [1] (10 mg/kg p.o) is 65 ± 10%.

Values taken from patent US5025036A, “Catechol carboxylic acids” (Hoffmann-La Roche Inc., priority 1989, dated 1991).
